Data on 3 compounds can be found in ChEMBL document CHEMBL5729609, “Indoleamine-2,3-dioxygenase inhibitor, preparation method therefor and use thereof” (2023).

The target of the assay is Indoleamine 2,3-dioxygenase 1 (Homo sapiens, UniProt P14902). The assay is described as follows: Inhibitory Activity Assay: IDO1 (His-tag) enzyme(BPS Bioscience), L-tryptophan (Sigma), methylene blue (Sigma), Catalase originated from the liver of cattle (Sigma), L-ascorbic acid (Sigma), glycerol (Sigma), potassium dihydrogen phosphate solution (Sigma), Tween 20 (Sigma), automatic sampling platformLiquid handler (Bravo & Echo), microplate ReaderSpectraMax M5e (Molecular Devices). Test Method of Compounds: The Compounds are Determined by Absorbance Test Method:The tested compounds are dissolved in DMSO to prepare a high concentration of storage solution. The stock solution of reference compound was diluted with DMSO to prepare a 100× solution. In the first column of the working plate, 8 μL above tested compounds and 8 μL 100× reference compound were respectively added as the highest concentration, and then the highest concentrations were subjected to three times dilution to obtain 11 concentrations and prepare 100× solution. 0.5 μL solution was transferred from the above plate to the detection plate. To each well was added 0.5 μL 100× compound solution. For HPE and ZPE control wells, 0.5 μL 100% DMSO was added. 25 μL 2×IDO1 (His-tag) enzyme solution (containing L-ascorbic acid, methylene blue, and catalase) was added to each well. 25 μL reaction solution without IDO1 (His-tag) enzyme was added into HPE control well. The test plate was centrifugated at 1000 rpm for 1 minute to mix well. Then, the test plate was incubated at room temperature for 30 minutes. 25 μL above 2× substrate (L-tryptophan) solution was added to each well. The test plate was centrifugated at 1000 rpm for 1 minute to mix well. The detection plate was placed on ELISA (SpectraMax M5e), the temperature was set at 25° C., and the absorbance (OD value) was measured at 320 nm every 10 minutes till 60 minutes.<p id="p-0313" num="0311">Calculating the increase ratio of absorbance: the slope of the absorbance increase curve from 10 min to 60 min is derived from SpectralMax M5e. […].
Indoleamine 2,3-dioxygenase 1, sequence (P14902 whole entry): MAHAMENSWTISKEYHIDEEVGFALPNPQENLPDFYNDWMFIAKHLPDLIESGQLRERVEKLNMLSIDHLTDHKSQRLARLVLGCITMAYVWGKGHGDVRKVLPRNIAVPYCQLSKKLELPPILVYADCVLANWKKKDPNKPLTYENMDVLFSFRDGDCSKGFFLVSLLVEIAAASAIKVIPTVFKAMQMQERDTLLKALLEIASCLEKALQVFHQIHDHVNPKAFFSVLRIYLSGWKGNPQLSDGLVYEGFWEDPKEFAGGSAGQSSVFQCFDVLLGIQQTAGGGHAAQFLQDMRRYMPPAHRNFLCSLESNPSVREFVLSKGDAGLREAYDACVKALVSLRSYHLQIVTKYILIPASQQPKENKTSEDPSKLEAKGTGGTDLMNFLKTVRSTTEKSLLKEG
Regarding `CNS(=O)(=O)CCCNc1nonc1/C(=N/O)Nc1ccc(F)c(Br)c1`, the IC50 is 49 nM.

For the compound `CCNS(=O)(=O)CCCNc1nonc1C(=NO)Nc1ccc(F)c(Br)c1`, the IC50 is 172 nM.

As for `CC(C)NS(=O)(=O)CCCNc1nonc1/C(=N/O)Nc1ccc(F)c(Br)c1`, the IC50 was 281 nM.
